Data from PubChem BioAssay (NCI).
Values joined by “and” are separate entries in the source; they are usually repeats but may differ in a detail not shown here. Equal entries are not always repeated.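 Cells were grown in 96-well plates and exposed to each compound for 48 hours at five concentrations; endpoints were interpolated linearly between bracketing concentrations, or set to the highest concentration if not reached. GI50 marks 50% less growth. TGI denotes the concentration required for complete inhibition of growth.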

System: MDA-MB-468 breast
Assay: NCI-60 cell line screen, 48 h

| Structure (SMILES) | GI50 | TGI |
| --- | --- | --- |
| O=[N+]([O-])c1cccc(/C=C/c2ccccn2)c1 | 2250 nM | > 100000 nM |
| O=C(Nc1ccc(Cl)cc1F)c1cc(F)ccc1O | 1270 nM | 5180 nM |
| N=C(N)c1ccc(-c2ccc(-c3cncc4ccccc34)s2)cc1F | 1280 nM | 2950 nM |
| COc1ccc(-c2ccc3ncc4c(c3c2)n(-c2ccc(N3CCNCC3)c(C(F)(F)F)c2)c(=O)n4C)cn1 | < 10 nM and 3.18 nM | 19.4 nM and 19.9 nM |
| NC(N)=Nc1ccc(Oc2cccc(Nc3ccc(Cl)c(C(F)(F)F)c3)c2)cc1 | 1480 nM | 3480 nM |
| COc1ccc(C2=CC(c3ccc(Oc4ccnc5cc(Cl)ccc45)c(OC)c3)c3c(nc(OC)[nH]c3=O)N2)cc1 (stereo unspecified) | 5220 nM | > 100000 nM |
| CCN1CCC2(CC1)NC(=O)c1c(c3ccc(Cl)c(Cl)c3n1C)C2C#N (stereo unspecified) | 1350 nM | 2910 nM |
| CC(C)(C)CC(C)(C)N(CSc1ccc(Cl)cc1)CSc1ccc(Cl)cc1 | 2610 nM | 12400 nM |
| C[C@@H]1[C@H]2[C@H](C=C3[C@@H]4CC[C@H]5Cc6nc7c(nc6C[C@]5(C)[C@H]4C[C@@H](O)[C@@]32C)C[C@@H]2CC[C@H]3C4=C[C@@H]5O[C@@]6(CC[C@](C)(CO)O6)[C@@H](C)[C@@]5(O)[C@@]4(C)[C@H](O)C[C@@H]3[C@@]2(C)C7)O[C@]12CCC(C)(C)O2 | 961 nM | 20700 nM |
| O=C1CCC(N2C(=O)c3ccc(NS(=O)(=O)c4ccccc4OC(F)(F)F)cc3C2=O)C(=O)N1 (stereo unspecified) | 53.6 nM | 2130 nM |
| COc1ccc2c(c1)C(=O)c1c-2c(OCCN(C)C)nc2cc(OC)ccc12 | 1870 nM | 8570 nM |
| COc1nc2c(cc1S(=O)(=O)c1ccccc1)CCc1c-2cnn1Cc1ccccc1 | 6450 nM | > 100000 nM |
| COc1cc(-c2nc(-c3nnc(-c4ccc(F)c(Cl)c4)o3)c3ccccn23)cc(OC)c1OC | 3390 nM | > 100000 nM |
| CSC1=Nc2c(c(C)c(-c3ccccc3)n2CCCCl)C2=NC(=O)CN12 | 3130 nM | 13100 nM |
| COc1cccc2c1C(=O)c1c(O)c3c(c(O)c1C2=O)C[C@@](O)(C(=O)CO)C[C@@H]3OC1CC(OC(C)=O)C(OC(C)=O)C(C)O1 (stereo partly specified) | 530 nM | 5060 nM |
| COc1ccc2c(O)c(/C=C3\N=Nc4ncccc43)oc2c1C[C@H]1CCNC[C@H]1F | 246 nM | 1950 nM |
| O=C1OCC2=C1C(c1cccc(C(F)(F)F)c1)c1cc3c(cc1N2CCO)OCO3 (stereo unspecified) | 244 nM | 2160 nM |
| COc1cc(-c2cc(-c3nc4cc(Cl)c(Cl)cc4[nH]3)[nH]n2)cc(OC)c1OC | 3490 nM | 16200 nM |
| CCOC(=O)/C(=C/c1ccccc1)C(=O)c1ccccc1 | 3770 nM | 13800 nM |
| COc1ccc2[nH]c(-c3ccccc3)c(C=C(C#N)C#N)c2c1 | 2130 nM | 49900 nM |
| CN(C)CCN1C(=O)c2cccc3c(N)ccc(c23)C1=O | 8400 nM | > 25000 nM |
| COc1cc(OC)cc(-c2ccc(-c3ccc(C(=N)N)s3)s2)c1 | 304 nM | 1160 nM |
| COc1cc(/C=C2\CCCC3C2=Nc2ccccc2NC3c2cc(OC)c(OC)c(OC)c2)cc(OC)c1OC (stereo unspecified) | 1710 nM | 6100 nM |

| Structure (SMILES) | GI50 | TGI |
| --- | --- | --- |
| FC(F)(F)c1[nH]ncc1-c1nc2c(N3CCCCC3)cc3[nH]ncc3c2c2c1CCCC2 | 691 nM | 2450 nM |
| COc1cc(-c2nc3ccccc3[nH]2)ccc1OCC(=O)N=Nc1c(O)[nH]c2ccc(Cl)cc12 | 1740 nM | 3450 nM |
| Cc1cc(C(=O)N[C@@H](CCC(=O)O)C(=O)O)sc1CC[C@@H]1CNc2nc(N)[nH]c(=O)c2C1 | 33.3 nM | – |
| Cc1cc(O)c(C2=NN(c3ccc(S(N)(=O)=O)cc3)C(c3ccccc3O)C2)cc1Cl (stereo unspecified) | 2260 nM | 5700 nM |
| CCN1/C(=C/C=C/C=C/c2sc3ccccc3[n+]2CC)Sc2ccccc21 | 117 nM | 989 nM |
| COc1ccc(-c2nn(-c3ccc(NC(=O)Nc4ccc(Cl)c(Cl)c4)cc3)cc2-c2ccncc2)cc1Cl | 1610 nM | 4480 nM |
| NC(=O)c1ccc2nc(-c3ccc(C4(N)CCC4)cc3)c(-c3ccccc3)n2n1 | 169 nM | 10300 nM |
| CN1C(=O)N(C)C2C1NN=c1s/c(=C\c3c[nH]c4ccccc34)c(=O)n12 (stereo unspecified) | 35.9 nM | > 86800 nM |
| C=CC[N+]1(CCO)CCN=C1CCCCCCCCCCCCC (stereo unspecified) | 1180 nM | 2550 nM |
| O=C(C[C@@]1(O)C(=O)Nc2c(Cl)ccc(Cl)c21)c1ccc(C2CC2)cc1 | 221 nM | 18600 nM |
| Fc1c[c-]c(-c2ccccn2)c(F)c1.[CH3-].[Pt+2].c1ccc([PH+](c2ccccc2)c2ccccn2)cc1 | 1400 nM | 4270 nM |
| Cc1c2cnccc2c(C)c2c1c1cc(C(=O)O)ccc1n2C | 837 nM | 3070 nM |
| C[C@H](C(=O)N[C@@H](Cc1ccc(-c2ccccc2)cc1)C(=O)NC1CC(C)(C)N(C)C(C)(C)C1)c1ccc(-c2ccccc2)c(F)c1 | 1240 nM | 2660 nM |
| COc1cc2cn3c4ccc(O)cc4nc(N)c3c2cc1OC | 313 nM | 2210 nM |
| CC(C)(C)OC(=O)N1CC(Cn2cc(C(F)(F)F)c3c(Cl)ncnc32)C1 | 1840 nM | 3870 nM |
| O=C1c2ccc3c4c(ccc(c24)C(=O)N1CCCNCc1ccccc1)C(=O)N(CCCNCc1ccccc1)C3=O | 143 nM | 285 nM |
| Cc1cc(Nc2cc(CN3CCOCC3)c3nc(C)c(Cc4ccc(Cl)cc4F)n3n2)n[nH]1 | 441 nM | 2950 nM |
| OC(COc1cccc2ccccc12)CN1CCN(c2ccc(Cl)cc2)CC1 (stereo unspecified) | 36400 nM | > 100000 nM |
| O=C(CCc1ccco1)NC1CCN(CC2(c3ccc(Cl)cc3)CCC2)CC1 | 5280 nM | 18900 nM |
| CCN(CC)S(=O)(=O)c1ccc(-c2nc(C(Cl)Cl)nc3cc(C)nn23)cc1 | 1720 nM | 4440 nM |
| C=CC(=O)NCCOc1cccc(Nc2cc(NCCCNC(=O)C3CCC3)c(Br)cn2)c1 | 1420 nM | 5080 nM |
| COc1ccc(Cn2cc3c(c2-c2cc(OC)c(OC)c(OC)c2)CCCc2cnoc2-3)cc1N | 540 nM | > 100000 nM |
| COc1ccccc1-c1ccc2nc(NC(=O)Nc3cc(C(F)(F)F)cc(C(F)(F)F)c3)sc2c1 | 1520 nM | 5430 nM |
